The values below come from article PMC4467816 (EJNMMI Research, 2015).

Where only a bound is given, the exact number is not on record here.

As usually defined, the chromatographic logD is a lipophilicity value derived from retention on a column. Read a low chromatographic logD as a more hydrophilic compound. The term logD denotes the decadic logarithm of the distribution of all forms, ionised or not, between an organic phase and buffer at a given pH. Low readings indicate a more hydrophilic compound, high ones a more lipophilic compound.

Series [1] in a line: HPLC-based logD analysis (ODP-50 column). Format: physicochemical. To be noted: for chromatographic logD: HPLC on polymeric ODP-50 column, methanol/phosphate buffer, pH 7.4, HPLC method. As for the experimental part:
LogD values were assessed using a HPLC-based protocol according to Donovan and Pescatore. All compounds (as cold reference standards) were injected together with two known compounds—with known logD and k′ values—according to a standard protocol. A polymeric ODP-50 column was used; a linear gradient from 10 % MeOH 90 % 25 mM phosphate buffer (pH 7.4) to 100 % methanol within 9.4 min at a flow-rate of 1.5 mL/min was applied. Internal standards were triphenylene and toluene; detection was performed at 260 and 285 nm.

Series [2] can be described thus: Plasma free fraction by ultrafiltration. Format: in vitro ADME, human. The note with it: binding to filter matrix of Centrifree vials, phosphate buffer pH 7.4. As for the experimental part:
For the determination of free fraction in human pooled plasma, an ultrafiltration protocol according to previously published methods was used. […] For a detailed method, see Additional file 1.
After incubation for 20 min at room temperature, the Centrifree vials were centrifuged for 50 minutes at 1800g. Subsequently, an aliquot of 50 µL of the ultrafiltrate was taken and measured in the γ-counter. The plasma free fraction was subsequently calculated as the ratio of the ultrafiltrate activity to the total plasma activity. […] The final free fraction value was corrected for this unspecific filter binding.

Another series has as its target T1, human SERT membranes (Homo sapiens, UniProt P31645).
T1 construct: purchased Perkin Elmer RBHSTM400UA
The series is described as follows: SERT-expressing membrane binding (selectivity). To be noted: n ≥ 5 triplicates, read-out: affinity towards SERT. Here is the method:
(§1) IC50 and Ki values were obtained in analogy to NET experiments. Ratios DAT/NET and SERT/NET were determined.
as §1

A further series has as its target T2, human NET membranes (Homo sapiens, UniProt P23975).
T2 construct: purchased Perkin Elmer RBHNETM400AU
The series is described as follows: NET-expressing membrane competitive binding ([3H]nisoxetine). To be noted: n ≥ 9 triplicates; cold reference compounds; read-out: Kd (affinity, human NET membranes).

The next series has as its target T3, human DAT membranes (Homo sapiens, UniProt Q01959).
T3 construct: purchased Perkin Elmer RBHDATM400UA
In words: DAT-expressing membrane binding (selectivity). The note with it: n ≥ 5 triplicates, read-out: affinity for DAT. As for the experimental part:
as §1, §1

In series [3] the target is T4, NET (Homo sapiens, UniProt P23975).
T4 construct: The human postmortem tissue (7–9 h postmortem time, no history of neurological diseases) was obtained from the Neurobiobank; from tissue; host or cells: post-mortem human brain (cortex, thalamus, hippocampus, cerebellum, hypothalamus, nucleus caudatus), 10 µm cryo-slices
In words: In vitro autoradiography with [11C]Me@HAPTHI, human brain slices, competition. It is filed as binding. To be noted: human nucleus caudatus.

Series [4] addresses T5, hNET expressing membranes (Homo sapiens, UniProt P23975).
T5 construct: purchased Perkin Elmer RBHNETM400AU
In words: Harvesting experiments with [11C]Me@HAPTHI on hNET expressing membranes. Format: binding. To be noted: cold competitor 1-1000 nM, n ≥ 3 triplicates.

Series [5] addresses T4, NET. In words: In vitro autoradiography with [11C]Me@HAPTHI, human brain slices, competition. It is filed as binding. Here is the method: Human brain tissue (cortex, thalamus, hippocampus, cerebellum and hypothalamus) was obtained deeply frozen from the Neurobiobank of the Medical University Vienna and was stored at −80 °C. Before cutting, tissue blocks were thawed slowly within 12 h to −20 °C. The organs were cut at −20 °C in a micro-cryotome into 10-μm-thick slices and thaw mounted onto object slides. Slices were again stored at −80 °C until the beginning of the experiment.
(§2) In vitro autoradiography was performed with slight modifications according to previously published protocols. Non-specific binding was determined by co-incubation with excess Nisoxetine (10 μM). […] After 1 h at room temperature, incubation was stopped and slices were processed on phosphor imaging films.
(§3) All data was exported to Microsoft Excel for statistical analysis, and the percentage of total specific binding was calculated.
Human brain tissue (cortex, thalamus, hippocampus, cerebellum, and hypothalamus) was obtained deeply frozen from the Neuro-Biobank of the Medical University Vienna. Upon cutting, all tissue was stored at -80 °C. Before cutting, tissue blocks were thawed slowly within 12 h to -20 °C. The organs were cut at -20°C in a micro-cryotome into 10 µm thick slices and thaw mounted onto object slides. Until the beginning of the experiment, slices were stored at -80°C.
(§4) A buffer for pre-incubation (50 mM TRIS HCl in aqua dest., pH 7.4) and a buffer for the experiment (50 mM TRIS HCl, pH 7.4, 300 mM NaCl, 5 mM KCl, 0.1%w/v ascorbic acid in aqua dest.) were prepared the day before the experiment and stored at 4 °C.
(§5) Tissue sections were allowed to thaw to RT upon thorough vanishing of condense water residues (5-10min). Subsequently, the slices were pre-incubated with the respective buffer at RT for 30 min in a Coplin jar. Slices were taken out of the jar and the buffer residues were removed.
(§6) Non-specific binding was determined by co-incubation with excess Nisoxetine (10 µM). […] To the naïve incubation solution (baseline), a vehicle containing acetonitrile was added in the same concentration as used for the dissolution of the competitors (i.e. 0.3% acetonitrile in the final incubation solution).
(§7) After 1 h the incubation was stopped and the slices were washed twice for 5 min in a jar with ice-cold incubation buffer. Finally, the tissue slides were washed with ice-cold water to remove all residual salts and dried under a smooth air stream. Subsequently, the dry tissue slices were placed on Phosphor-Imager films in a lead shielded cassette for an exposure time of 12 h. Following the analysis of the films with a Cyclone Phosphor Imager, regions of interest (ROI) were analyzed using OptiQuant® software. The signal obtained (digital light units/mm2=DLU/mm^2) was proportional to the radioactivity on the film. Using a calibration curve for each experiment, DLUs were converted into kBq/mm^2. Furthermore, for calculation of NET-density, kBq were converted into fmol by taking into account the specific activity of the radiotracer preparations. All data was exported to Microsoft Excel for statistical analysis and the percentage of total specific binding was calculated.

Series [6] deals with T6, NET (Rattus norvegicus, UniProt Q63380).
T6 construct: Wild-type male rats were deeply anesthesized by isoflurane and sacrificed by decapitation; The organs of interest (i.e. brain, heart and testis) were removed; from tissue; host or cells: rat heart, 10 µm cryo-slices
In words: In vitro autoradiography with [11C]Me@HAPTHI, rat heart slices, competition. The note with it: for % BL-competitor: [11C]Me@HAPTHI binding, BL = baseline; for fmol (calculated relative concentration of transporter protein): limit of detection 0.01 fmol. Format: binding. As for the experimental part:
as §2, §3, §4, §5, §6, §7

[7] abbreviates: human cortex, competitor 100 nM.
[8] abbreviates: human hippocampus, competitor 100 nM.
Setting [9] is: human hippocampus, competitor 1 μM.
The mark [10] stands for this setting: human hypothalamus, competitor 100 nM.
[11] abbreviates: human hypothalamus, competitor 1 μM.
Where [12] appears, read: human thalamus, competitor 100 nM.
The mark [13] stands for this setting: human thalamus, competitor 1 μM.

T6 sequence (Q63380 1-617): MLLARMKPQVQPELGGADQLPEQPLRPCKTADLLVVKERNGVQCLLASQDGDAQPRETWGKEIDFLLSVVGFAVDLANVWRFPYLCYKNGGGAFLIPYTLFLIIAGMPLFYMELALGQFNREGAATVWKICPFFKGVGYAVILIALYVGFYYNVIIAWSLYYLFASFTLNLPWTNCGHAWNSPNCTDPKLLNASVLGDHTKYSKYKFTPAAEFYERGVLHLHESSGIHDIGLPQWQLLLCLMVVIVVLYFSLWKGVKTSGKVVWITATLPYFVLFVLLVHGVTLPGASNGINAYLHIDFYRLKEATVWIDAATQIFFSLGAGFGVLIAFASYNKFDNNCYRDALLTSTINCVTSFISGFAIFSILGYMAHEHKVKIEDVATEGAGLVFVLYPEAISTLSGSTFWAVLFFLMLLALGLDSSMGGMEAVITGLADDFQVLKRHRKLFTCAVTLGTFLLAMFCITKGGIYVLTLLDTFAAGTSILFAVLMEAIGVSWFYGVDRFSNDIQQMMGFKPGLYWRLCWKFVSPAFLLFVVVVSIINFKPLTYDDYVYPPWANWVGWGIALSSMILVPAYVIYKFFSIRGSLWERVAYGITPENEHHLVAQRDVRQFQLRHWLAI
T4 sequence (P23975 whole entry): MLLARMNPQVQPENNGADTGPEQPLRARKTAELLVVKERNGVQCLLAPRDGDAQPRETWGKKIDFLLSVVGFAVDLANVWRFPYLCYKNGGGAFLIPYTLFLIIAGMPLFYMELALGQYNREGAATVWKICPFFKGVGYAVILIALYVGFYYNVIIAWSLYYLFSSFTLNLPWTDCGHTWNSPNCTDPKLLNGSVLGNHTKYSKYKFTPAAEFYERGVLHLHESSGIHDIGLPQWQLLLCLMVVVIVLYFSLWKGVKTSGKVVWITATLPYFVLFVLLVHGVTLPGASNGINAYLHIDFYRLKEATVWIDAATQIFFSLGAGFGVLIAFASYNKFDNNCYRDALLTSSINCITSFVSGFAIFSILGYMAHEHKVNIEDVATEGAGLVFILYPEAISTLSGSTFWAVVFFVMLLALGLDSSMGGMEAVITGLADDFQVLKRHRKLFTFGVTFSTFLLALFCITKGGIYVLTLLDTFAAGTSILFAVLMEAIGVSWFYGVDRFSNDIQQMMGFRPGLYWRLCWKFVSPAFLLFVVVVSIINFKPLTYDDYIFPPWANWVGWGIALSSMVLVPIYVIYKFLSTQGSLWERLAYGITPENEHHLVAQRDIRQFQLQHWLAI
T1 sequence (P31645 whole entry): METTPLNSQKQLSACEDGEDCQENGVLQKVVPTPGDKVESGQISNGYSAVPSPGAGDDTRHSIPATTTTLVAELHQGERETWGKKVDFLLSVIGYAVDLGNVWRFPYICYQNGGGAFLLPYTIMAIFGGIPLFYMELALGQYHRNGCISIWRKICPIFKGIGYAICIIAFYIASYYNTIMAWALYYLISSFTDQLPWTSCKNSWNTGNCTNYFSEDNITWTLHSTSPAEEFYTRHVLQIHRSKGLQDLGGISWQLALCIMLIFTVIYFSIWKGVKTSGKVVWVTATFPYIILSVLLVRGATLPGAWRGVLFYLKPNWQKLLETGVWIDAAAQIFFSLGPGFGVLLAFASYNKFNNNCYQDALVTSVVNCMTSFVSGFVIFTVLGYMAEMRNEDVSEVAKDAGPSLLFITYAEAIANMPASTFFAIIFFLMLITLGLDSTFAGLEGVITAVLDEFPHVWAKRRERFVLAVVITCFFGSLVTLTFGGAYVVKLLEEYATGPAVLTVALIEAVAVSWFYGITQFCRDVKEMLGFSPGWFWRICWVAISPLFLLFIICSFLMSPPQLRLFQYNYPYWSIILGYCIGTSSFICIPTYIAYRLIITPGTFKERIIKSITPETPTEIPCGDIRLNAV
T5 sequence (P23975 whole entry): as the sequence (P23975 whole entry) above
T2 sequence (P23975 whole entry): as above
T3 sequence (Q01959 whole entry): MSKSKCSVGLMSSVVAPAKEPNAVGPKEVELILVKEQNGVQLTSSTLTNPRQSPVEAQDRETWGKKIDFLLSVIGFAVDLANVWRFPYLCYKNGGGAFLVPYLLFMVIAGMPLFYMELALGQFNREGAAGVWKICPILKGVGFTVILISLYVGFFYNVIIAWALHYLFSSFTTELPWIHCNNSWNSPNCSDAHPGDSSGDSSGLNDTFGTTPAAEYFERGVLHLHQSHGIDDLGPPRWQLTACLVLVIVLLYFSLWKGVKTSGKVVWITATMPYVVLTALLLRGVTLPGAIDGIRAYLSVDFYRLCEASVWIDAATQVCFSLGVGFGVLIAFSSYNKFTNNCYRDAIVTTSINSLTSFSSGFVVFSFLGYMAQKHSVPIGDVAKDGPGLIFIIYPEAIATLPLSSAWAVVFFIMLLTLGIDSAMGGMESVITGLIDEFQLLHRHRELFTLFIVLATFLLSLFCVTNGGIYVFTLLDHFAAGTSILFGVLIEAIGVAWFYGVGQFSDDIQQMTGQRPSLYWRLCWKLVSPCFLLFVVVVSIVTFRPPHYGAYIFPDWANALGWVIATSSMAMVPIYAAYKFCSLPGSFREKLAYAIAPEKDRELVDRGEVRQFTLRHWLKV
Description for human NET membranes: The affinity of new radiolabelled ligand was determined in a NET-expressing membrane binding protocol [26, 27].
Data from the competition plots (as arithmetic means of values derived from three different assays, each in triplicate for each compound) were analyzed and subsequently IC50 and Ki values were calculated using GraphPad Prism® software (San Diego, USA).
The affinity of new radiolabeled ligand was determined in a NET-expressing membrane binding protocol [3-5]. […] After incubation time, binding was quenched with ice cold buffer, and membrane bound radioactivity was recovered by rapid vacuum filtration through GF/C glass fiber filters (Whatman® Inc., Clifton, USA) presoaked in assay buffer containing 0.3% polyethylene imine (PEI). […] After addition of a β-scintillation cocktail (2 mL Ultima Gold^TM, biodegradeable, Perkin Elmer), the tubes were shaken for 20 min and then counted. Data from the competition plots (as arithmetic means of values derived from three different assays, each in triplicate for each compound) were analyzed and subsequently IC50 and Ki values were calculated using GraphPad Prism® software (San Diego, USA).

In series [1], `CNC[C@@H](O)CCN1c2ccccc2N(c2ccccc2)S1(=O)=O` [Me@HAPTHI, (S)-1-(3-hydroxy-4-(methylamino)butyl)-3-phenyl-1,3-dihydrobenzo[c][1,2, 5]thiadiazole 2,2-dioxide] displayed a chromatographic logD of 2.27 ± 0.01.
With `[11CH3]NC[C@@H](O)CCN1c2ccccc2N(c2ccccc2)S1(=O)=O` [[^11C]Me@HAPTHI, (S)-1-(3-hydroxy-4-([^11C]methylamino)butyl)-3-phenyl-1,3-dihydrobenzo[c][1,2, 5]thiadiazole 2,2-dioxide], the unspecific filter retention in series [2] came out at 51.26 ± 0.78%.
Consider `NC[C@@H](O)CCN1c2ccccc2N(c2ccccc2)S1(=O)=O` [HAPTHI, (S)-1-(4-amino-3-hydroxybutyl)-3-phenyl-1,3-dihydrobenzo[c][1,2, 5]thiadiazole 2,2-dioxide], for which the Kd on human SERT membranes was 10.3 µM; on human NET membranes, 0.0242 ± 0.0109 µM; at human DAT membranes it was above 10 µM. In series [1], this molecule came in with a chromatographic logD of 2.3 ± 0.01.
For `[2H]C([2H])(F)Oc1ccccc1OC(c1ccccc1)C1CNCCO1` (centres unmarked) [FMeNER-D2], the “% BL-competitor” value amounted to 102.6 ± 14.5% at NET [3] (competitor 100 nM); 107.6 ± 17.7% at NET [3] (competitor 1 μM); 103.9 ± 12.2% at NET [5] (human cerebellum, competitor 100 nM); 108.2 ± 17.3% on NET [5] (human cerebellum, competitor 1 μM); 86.3 ± 11.2 % at NET [5] (setting [7]); 71.9 ± 7.9 % on NET [5] (human cortex, competitor 1 μM). The “% BL-competitor” value stood at 97.1 ± 10.3% on NET [5] (setting [8]); 67.3 ± 8.2% at NET [5] (setting [9]); 97.8 ± 14.6% on NET [5] (setting [10]); 77.4 ± 14.5% at NET [5] (setting [11]); 77.6 ± 9.8% at NET [5] (setting [12]); 68.36 ± 2.11% on NET [5] (setting [13]). The “% BL-competitor” value at NET [6] (competitor 100 nM) was 99.00 ± 0.07%; on NET [6] (competitor 1 μM), 88.8 ± 11.2%. Further, the “displacement of [11C]Me@HAPTHI” value in series [4] is given as “concentration-dependent displacement”. For the same molecule, the “fmol (calculated relative concentration of transporter protein)” value at NET [5] (setting [7]) is below 0.01 fmol/mm^2; at NET [5] (human cortex, competitor 1 μM) it was 0.86 fmol/mm^2; on NET [5] (setting [8]), below 0.01 fmol/mm^2; on NET [5] (setting [9]), below 0.01 fmol/mm^2; on NET [5] (setting [10]), 0.11 fmol/mm^2; on NET [5] (setting [11]), 0.02 fmol/mm^2. Also, the “fmol (calculated relative concentration of transporter protein)” value on NET [5] (setting [12]) is listed as 0.47 fmol/mm^2; at NET [5] (setting [13]) it was 0.71 fmol/mm^2; at NET [6] (competitor 100 nM), below 0.01 fmol/mm^2; at NET [6] (competitor 1 μM), below 0.01 fmol/mm^2. Also, the logD in series [1] (HPLC method, phosphate buffer pH 7.4) worked out at 2.73.
